Like-named read-outs stand apart in the source and are kept apart here.

The record followed here is US20170313674A1, “BENZYLHYDROXIDE DERIVATIVES, PREPARATION THEREOF AND THERAPEUTIC USE THEREOF” (SANOFI, priority 2014, published 2017).

Assay [1] concerns HIF-1a. Briefly: Western blot model: HIF1-a stabilization in Hep3b cells under hypoxia. It counts as cell-based. Conditions: hypoxia 1% O2, 6 hours; for Western Blot (range of decrease of HIF1-a stabilization): class symbol. Here is the method: Since it was sought to determine the efficacy of the compounds to inhibit HIF1a stabilization under hypoxia, the compounds according to the invention underwent biochemical studies in order to determine their capacity to decrease HIF stabilization in Hep3b cells under hypoxia (western blot model).
Hep3B cells are seeded at a rate of 300000 cells per well in 6-wells culture plate in 2 ml of MEM supplemented with glutamin (2 mM) and 10% FCS (foetal calf serum) and incubated at 37° C. in the presence of 5% CO2. The next day, the cells are placed in contact with the compound and an incubation under hypoxia at 1% O2 is carried out at 37° C. in 95% humidity and 5% CO2 in a sealed anaerobic workstation (Hypoxystation H35-Don Whitley—AES Chemunex) during 6 hours.
Cells were washed (PBS) and lysed in SDS sample buffer. Proteins (25 μg) were separated on 4-12% Bis-Tris gels and transferred onto polyvinylidene difluoride membranes (Millipore). Membranes were blotted with a mouse monoclonal antibody to HIF-1a (BD transduction) and a mouse monoclonal anti-βactin (Sigma). Immunoreactive bands were detected with a horse radish peroxydase (HRP) anti-mouse antibody (Sigma) by enhanced chemiluminescence (Promega).
The inhibitory activity of the compounds for their capacity to decrease HIF1-a stabilization in Hep3b under hypoxia is expressed as range of percentage relative to control with: […]
A general note: In western blotting, separated proteins are transferred to a membrane and probed.

For assay [2], the system named is mitochondrial ATP production on non-small cell lung carcinoma cell lines NCI-H460. Briefly: Mitochondrial ATP analysis (Cell Titer Glo) in NCI-H460 cells. In kind it is cell-based. To be noted: 1-hour incubation, with sodium iodoacetate (100 μM), concentration inhibiting 50% of mitochondrial ATP production, read-out: IC50 (mito ATP). An outline of the steps:
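NCI-H460 cells (1,000/well) treated 24 h after plating for 1 h with compound dose series alone or with 100 μM sodium iodoacetate; oligomycin A (10 μg/ml) and FCCP (30 μM) as controls; Cell Titer Glo luminescence. Mitochondrial ATP = ATP under iodoacetate minus ATP under iodoacetate+oligomycin; IC50 (M).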
On the technique in general: Cellular ATP, detected with luciferase, serves as a proxy for viable cell number.

The term IC50 denotes the point on the concentration scale where inhibition reaches its midpoint. Consider `COc1ccc(C(O)C(C)(C)Oc2ccc(-c3csc(-c4ccc(OC(C)(C)C(O)c5ccc(OC)c(OC)c5)cc4)n3)cc2)cc1OC` (stereo not drawn) [Compound I-26, 1-(3,4-dimethoxyphenyl)-2-[4-[2-[4-[2-(3,4-dimethoxyphenyl)-2-hydroxy-1,1-dimethyl-ethoxy]phenyl]thiazol-4-yl]phenoxy]-2-methyl-propan-1-ol], for which, in assay [1], the “Western Blot (decrease of HIF1-a stabilization, percentage relative to control)” value was determined as 39% and the “Western Blot (range of decrease of HIF1-a stabilization)” value is on record as “* (* represents a decrease of HIF-a stabilization between 30 to 50%)”. The IC50 in assay [2] (Homo sapiens, NCI-H460, 1 h) was 7.32 nM.
`COc1ccc(C(O)COc2ccc(-c3csc(-c4ccc(OCC(O)c5ccc(OC)c(OC)c5)cc4)n3)cc2)cc1OC` (single isomer, unassigned) [Compound I-62, 1-(3,4-dimethoxyphenyl)-2-[4-[2-[4-[2-(3,4-dimethoxyphenyl)-2-hydroxy-ethoxy]phenyl]thiazol-4-yl]phenoxy]ethanol]: in assay [1], the “Western Blot (decrease of HIF1-a stabilization, percentage relative to control)” value came out at 43% and the “Western Blot (range of decrease of HIF1-a stabilization)” value is recorded as “* (* represents a decrease of HIF-a stabilization between 30 to 50%)”. Also, the half-maximal inhibitory concentration (IC50) in assay [2] stood at 492 nM.
As to `COc1ccc(C(O)C(C)(C)Oc2ccc(-c3nc(-c4ccc(OC(C)(C)C(O)c5ccc(OC)c(OC)c5)cc4)c(C)o3)cc2)cc1OC` (stereo not drawn) [Compound I-2, 1-(3,4-dimethoxyphenyl)-2-[4-[2-[4-[2-(3,4-dimethoxyphenyl)-2-hydroxy-1,1-dimethyl-ethoxy]phenyl]-5-methyl-oxazol-4-yl]phenoxy]-2-methyl-propan-1-ol], in assay [1], the “Western Blot (decrease of HIF1-a stabilization, percentage relative to control)” value is on record as 54% and the “Western Blot (range of decrease of HIF1-a stabilization)” value is “** (** represents a decrease of HIF-a stabilization between 50 to 70%)”. The IC50 in assay [2] (Homo sapiens, NCI-H460, 1 h) is 23 nM.
For the compound `COc1ccc(C(O)C(C)(C)Oc2ccc(-c3csc(-c4ccc(OC(C)(C)C(O)c5ccc(OC)c(OC)c5)cc4)n3)cc2)cc1OC` (stereo not drawn) [Compound I-27, 1-(3,4-dimethoxyphenyl)-2-[4-[2-[4-[2-(3,4-dimethoxyphenyl)-2-hydroxy-1,1-dimethyl-ethoxy]phenyl]thiazol-4-yl]phenoxy]-2-methyl-propan-1-ol], in assay [1], the “Western Blot (decrease of HIF1-a stabilization, percentage relative to control)” value was 40% and the “Western Blot (range of decrease of HIF1-a stabilization)” value is given as “* (* represents a decrease of HIF-a stabilization between 30 to 50%)”. Besides, the IC50 in assay [2] stood at 3.68 nM.
In the case of `COc1ccc(C(O)C(C)Oc2ccc(-c3cnc(-c4ccc(OC(C)C(O)c5ccc(OC)c(OC)c5)cc4)o3)cc2)cc1OC` (stereo not drawn) [Compound I-45, 1-(3,4-dimethoxyphenyl)-2-[4-[2-[4-[2-(3,4-dimethoxyphenyl)-2-hydroxy-1-methyl-ethoxy]phenyl]oxazol-5-yl]phenoxy]propan-1-ol], in assay [1], the “Western Blot (decrease of HIF1-a stabilization, percentage relative to control)” value is 87% and the “Western Blot (range of decrease of HIF1-a stabilization)” value was “*** (*** represents a decrease of HIF-a stabilization higher than 70%)”. For the same compound, the IC50 in assay [2] (Homo sapiens, NCI-H460, 1 h) turned out to be 426 nM.
For `COc1ccc(C(O)C(C)(C)Oc2ccc(-c3noc(-c4ccc(OC(C)(C)C(O)c5ccc(OC)c(OC)c5)cc4)n3)cc2)cc1OC` (single isomer, unassigned) [Compound I-37, 1-(3,4-dimethoxyphenyl)-2-[4-[5-[4-[2-(3,4-dimethoxyphenyl)-2-hydroxy-1,1-dimethyl-ethoxy]phenyl]-1,2,4-oxadiazol-3-yl]phenoxy]-2-methyl-propan-1-ol], in that order: 74%, “*** (*** represents a decrease of HIF-a stabilization higher than 70%)” and 94.3 nM.
For `COc1ccc(C(O)C(C)(C)Oc2ccc(-c3nsc(-c4ccc(OC(C)(C)C(O)c5ccc(OC)c(OC)c5)cc4)n3)cc2)cc1OC` (stereo not drawn) [Compound I-42, 1-(3,4-dimethoxyphenyl)-2-[4-[5-[4-[2-(3,4-dimethoxyphenyl)-2-hydroxy-1,1-dimethyl-ethoxy]phenyl]-1,2,4-thiadiazol-3-yl]phenoxy]-2-methyl-propan-1-ol], in that order: 56%, “** (** represents a decrease of HIF-a stabilization between 50 to 70%)” and 30 nM.
Consider `COc1ccc(C(O)COc2ccc(-c3coc(-c4ccc(OCC(O)c5ccc(OC)c(OC)c5)cc4)n3)cc2)cc1OC` (single isomer, unassigned) [Compound I-13, 1-(3,4-dimethoxyphenyl)-2-[4-[2-[4-[2-(3,4-dimethoxyphenyl)-2-hydroxy-ethoxy]phenyl]oxazol-4-yl]phenoxy]ethanol], for which, in assay [1], the “Western Blot (decrease of HIF1-a stabilization, percentage relative to control)” value came to 51% and the “Western Blot (range of decrease of HIF1-a stabilization)” value is “** (** represents a decrease of HIF-a stabilization between 50 to 70%)”. In addition, the IC50 in assay [2] was 69 nM.
As for `COc1ccc(C(O)COc2ccc(-c3nc(-c4ccc(OC(C)(C)C(O)c5ccc(OC)c(OC)c5)cc4)cs3)cc2)cc1OC` (stereo not drawn) [Compound I-64, 1-(3,4-dimethoxyphenyl)-2-[4-[2-[4-[2-(3,4-dimethoxyphenyl)-2-hydroxy-ethoxy]phenyl]thiazol-4-yl]phenoxy]-2-methyl-propan-1-ol], in assay [1], the “Western Blot (decrease of HIF1-a stabilization, percentage relative to control)” value is 58% and the “Western Blot (range of decrease of HIF1-a stabilization)” value is on record as “** (** represents a decrease of HIF-a stabilization between 50 to 70%)”. Moreover, the half-maximal inhibitory concentration (IC50) in assay [2] (Homo sapiens, NCI-H460, 1 h) worked out at 180 nM.
Regarding `COc1ccc(C(O)COc2ccc(-c3nc(-c4ccc(OCC(O)c5ccc(OC)c(OC)c5)cc4)c(C)s3)cc2)cc1OC` (single isomer, unassigned) [Compound I-10, 1-(3,4-dimethoxyphenyl)-2-[4-[2-[4-[2-(3,4-dimethoxyphenyl)-2-hydroxy-ethoxy]phenyl]-5-methyl-thiazol-4-yl]phenoxy]ethanol], in assay [1], the “Western Blot (decrease of HIF1-a stabilization, percentage relative to control)” value was found to be 62% and the “Western Blot (range of decrease of HIF1-a stabilization)” value is on record as “** (** represents a decrease of HIF-a stabilization between 50 to 70%)”. In addition, the 50% inhibitory concentration (IC50) in assay [2] is 146 nM.
As to `COc1ccc(C(O)C(C)(C)Oc2ccc(-c3noc(-c4ccc(OC(C)(C)C(O)c5ccc(OC)c(OC)c5)cc4)n3)cc2)cc1OC` (stereo not drawn) [Compound I-38, 1-(3,4-dimethoxyphenyl)-2-[4-[5-[4-[2-(3,4-dimethoxyphenyl)-2-hydroxy-11-dimethyl-ethoxy]phenyl]-1,2,4-oxadiazol-3-yl]phenoxy]-2-methyl-propan-1-ol], in assay [1], the “Western Blot (decrease of HIF1-a stabilization, percentage relative to control)” value is listed as 79% and the “Western Blot (range of decrease of HIF1-a stabilization)” value is given as “*** (*** represents a decrease of HIF-a stabilization higher than 70%)”. Moreover, the half-maximal inhibitory concentration (IC50) in assay [2] was determined as 133 nM.
For `COc1ccc(C(O)C(C)(C)Oc2ccc(-c3nc(-c4ccc(OC(C)(C)C(O)c5ccc(OC)c(OC)c5)cc4)c(C)s3)cc2)cc1OC` (single isomer, unassigned) [Compound I-8, 1-(3,4-dimethoxyphenyl)-2-[4-[2-[4-[2-(3,4-dimethoxyphenyl)-2-hydroxy-1,1-dimethyl-ethoxy]phenyl]-5-methyl-thiazol-4-yl]phenoxy]-2-methyl-propan-1-ol], in that order: 47%, “* (* represents a decrease of HIF-a stabilization between 30 to 50%)” and 2.06 nM.
For `COc1cc(C(O)COc2ccc(-c3coc(-c4ccc(OCC(O)c5cc(OC)c(OC)c(OC)c5)cc4)n3)cc2)cc(OC)c1OC` (single isomer, unassigned) [Compound I-21, 2-[4-[2-[4-[2-hydroxy-2-(3,4,5-trimethoxyphenyl)ethoxy]phenyl]oxazol-4-yl]phenoxy]-1-(3,4,5-trimethoxyphenyl)ethanol], in that order: 52%, “** (** represents a decrease of HIF-a stabilization between 50 to 70%)” and 2650 nM.
For `COc1ccc(C(O)C(C)(C)Oc2ccc(-c3coc(-c4ccc(OC(C)(C)C(O)c5ccc(OC)c(OC)c5)cc4)n3)cc2)cc1OC` (single isomer, unassigned) [Compound I-18, 1-(3,4-dimethoxyphenyl)-2-[4-[2-[4-[2-(3,4-dimethoxyphenyl)-2-hydroxy-1,1-dimethyl-ethoxy]phenyl]oxazol-4-yl]phenoxy]-2-methyl-propan-1-ol], in that order: 71%, “*** (*** represents a decrease of HIF-a stabilization higher than 70%)” and 62.8 nM.
